Assay results as given in patent US9775335B2, “Durable coating-embedded pesticides with peel and stick mosquito treatment of containers” (University of Florida Research Foundation, Inc., priority 2013, dated 2017).

Columns and labels:
Assay type in all cases: in vivo
[1] = test system: mosquito larvae; assay: Adult mosquito emergence, larvicide embedded in different coatings at different rates (FIG. 23)
Description: Referring to FIG. 23, three different coating were used to embed the larvicide pyriproxyfen at 3 different rates. Coatings were applied to plastic containers that were filled with water, before mosquito larvae were transferred to these containers.
Several different formulae (polycrylic, Polyurethane and Latex paint) have been tested as coatings for the larvicide. All coatings performed well in preventing adult emergence from larvae added to water-holding containers coated internally with the coating-embedded larvicide even with 0.0001% of the active ingredient in the coating. Water treated with 0.01% rate is considered potable by the World Health Organization (WHO).

[2] = test system: mosquito larvae; assay: Adult mosquito emergence after high volume washing of coated containers (FIG. 24); details: embedded in polycrylic and polyurethane coatings; washed with tap water 5×, 20×, 50× container volume, refilled with fresh water
Method: Referring to FIG. 24, two of the coating tested previously (refer to FIG. 23) were also tested for durability under high volume washing to see if they could stand under heavy rains. The coatings applied to plastic containers were subject to continuous washing with tap water for total volumes equivalent to 5×, 20×, and 50× the container volumes. After wards the containers were refilled with fresh water and mosquito larvae were added to the water. Adult emergence from the larvae was only observed in containers with coatings that contained no embedded larvicide. […] Coatings prevent larvicide washing off, with up to 50 times the volume of water as contained in the ovitrap. Most larvicides are applied to water and disappear when containers are emptied and re filled either naturally by rain action or by other means. The coating constantly treats new water put in containers with enough larvicide to preserve the mosquito-killing action. Both polycrylic and polyurethane protect the action of pyriproxyfen larvicide when containers coated with these materials are subjected to washing.

[3] = test system: mosquito larvae; assay: Mosquito larval mortality with coating-embedded larvicide, 0-week and 20-week aging (FIGS. 17-18)
Description: FIG. 17 is a graph of mosquito larval mortality after 0-week aging with the average live mosquitoes on the vertical axis versus exposure time on the horizontal axis.
FIG. 18 is a graph of mosquito larval mortality after 20-week aging with the average live mosquitoes on the vertical axis versus exposure time on the horizontal axis.
FIG. 17 is a graph of mosquito larval mortality over 0-week aging with amount of mosquitoes on the vertical axis versus exposure time on the horizontal axis.
FIG. 18 is a graph of mosquito larval mortality over 20-week aging on the vertical axis versus exposure time on the horizontal axis.
By embedding the larvicide pyriproxyfen in a coating, the mosquito killing action is protected from degradation for more than 20 weeks.

CC(COc1ccc(Oc2ccccc2)cc1)Oc1ccccn1 (centres unmarked) [pyriproxyfen, Pyriproxyfen]
adult mosquito emergence ([1]; embedded in three different coatings at 3 rates, applied to plastic containers filled with water): no emergence of mosquitoes even at low pyriproxyfen content
adult mosquito emergence ([1]; water standard (no coating), 3 rates): mosquito emergence was only inhibited at the high pyriproxyfen level
adult mosquito emergence after washing [2]: prevented the emergence of adults
time for which the mosquito killing action is protected from degradation ([3]; larvicide embedded in a coating): more than 20 weeks
mosquito larval mortality / prevention of mosquito emergence ([3]; water in contact with coating-embedded larvicide or larvicide applied directly to container, new material or aged 20 weeks): mosquito larvae start to die as they reach the pupal stage
